We go through 84 compounds from ChEMBL document CHEMBL1157539, “Thousands of chemical starting points for antimalarial lead identification” (Nature, 2010).

The test system of the assay is Plasmodium falciparum. Put plainly: GSK_TCMDC: Inhibition of Plasmodium falciparum 3D7 in whole erythrocytes, using parasite LDH activity as an index of growth. Conditions: Plasmodium falciparum, 3D7. The format is functional, organism-based.
The compound `CCN1CCC(N(Cc2ccc(-c3ccc(C(F)(F)F)cc3)cc2)C(=O)Cn2c(CCc3cccc(F)c3F)cc(=O)c3cn(C)nc32)CC1` returned an XC50 of 240 nM.
As to `O=C(Nc1ccc(OC2CCN(Cc3ccc(F)cc3)CC2)c(Cl)c1)c1ccccc1`, the XC50 is 794 nM.
The figure for `CN(C)CCC1CCN(CCS(=O)(=O)c2cccc(Nc3ccc(-c4ccsc4)cn3)c2)CC1` is 938 nM.
Compound `CC(C)N(CCOc1ccc2c(c1)N(C(=O)Nc1cc(Br)cc(C(F)(F)F)c1)CC2)C(C)C` had an XC50 of 108 nM.
With `Cc1cc(N2CCCC2)nc(Nc2ccc(NC(=O)c3ccc(Br)o3)cc2)n1`, the XC50 was found to be 623 nM.
The compound `COc1ccc2[nH]c(C(=O)Nc3cccc(-c4ccc(CN(C)C)cc4)c3)cc2c1` had an XC50 of 908 nM.
The compound `O=C(NC1CCN(Cc2ccccc2)CC1)c1ccc(-c2nc3cc(Cl)c(F)cc3[nH]2)cc1` returned an XC50 of 245 nM.
`CCn1ccc2c(N3CCCS3(=O)=O)cc(C(=O)N[C@@H](Cc3ccccc3)[C@H](O)CNC(C)(C)c3cccc(OC)c3)cc21` registered an XC50 of 41.6 nM.
On to `CC1CCCCC1N(C)C1CCN(CCCNC(=O)C=Cc2ccc(Cl)cc2Cl)CC1` (centres undefined), for which the XC50 was 650 nM.
The figure for `COc1ccc2nccc([C@@H](O)CN3CCC(NC(=O)/C=C/c4ccc(Cl)c(C(F)(F)F)c4)CC3)c2c1` is 290 nM; for `CCN(CC)c1ccc(NC(=S)NC2CCN(CCCCCNC(=O)/C=C/c3ccc(Cl)c(Cl)c3)CC2)cc1` it is 883 nM.
In turn, `COc1ccc(S(=O)(=O)N(c2cc(Br)cc3c2OCC3)S(=O)(=O)c2ccc(OC)c(N3CCN(C)CC3)c2)cc1N1CCN(C)CC1` yielded an XC50 of 1170 nM.
Compound `O=C(/C=C/c1cccs1)NCC(NCCCNc1cc(=O)c2ccccc2[nH]1)c1cc(Br)cc(Br)c1` (centres undefined) registered an XC50 of 888 nM.
Compound `O=c1c(Br)ccccc1Br` gave an XC50 of 795 nM.
Regarding `COc1ccc2ncc(F)c(CCN3CC(O)C(CNCc4ccc(F)cc4)C3)c2n1` (centres undefined), the XC50 is 821 nM.
`N=C(N)Nc1ccc(OCCCCCOc2ccc(NC(=N)N)cc2)cc1`: the XC50 was found to be 193 nM.
The compound `CCc1sc(N2CCN(C)CC2)nc1C(=O)Nc1ccc(F)cc1C(F)(F)F` yielded an XC50 of 178 nM.
Next, `CN1CCN(CC(=O)Nc2cccc(-c3ccc(-c4nc5cc(C(F)(F)F)ccc5[nH]4)s3)c2)CC1`: 309 nM; `Cc1ccc(NC(=O)N2CCC(n3c(-c4ccccc4)nc4cccnc43)CC2)cc1F`: 534 nM.
Turning to `Cc1cccc(CC2CC(=O)N(c3ccc([N+](=O)[O-])cc3)C2=O)c1` (centres undefined), the XC50 stood at 200 nM.
Next, `O=C(/C=C/c1ccc(Cl)c(Cl)c1)N1CCC(CN2CCC(c3c[nH]c4cc(C(F)(F)F)ccc34)CC2)CC1`: 796 nM; `Cc1nc(C)c(C2CCC(c3ccc(Cl)cc3)CC2)c(O)c1Cl` (centres undefined): 51.8 nM.
As for `COC(=O)c1cccc(CNCc2cccc(-c3cccc(-c4nc5cccc(C)c5[nH]4)c3)c2)c1`, the XC50 is 186 nM.
The compound `Cc1ccccc1C1CCN(C2CCC(NC(=O)c3ccc(-c4ccccc4)s3)CC2)CC1` (centres undefined) displayed an XC50 of 661 nM.
The figure for `COc1ccc2nccc(N3CCC(SCCNS(=O)(=O)c4ccc5c(c4)OCCO5)C3)c2n1` (centres undefined) is 981 nM; for `CSc1ccc(C=CC(=O)NC(=O)c2ccccc2O)cc1` it is 289 nM; for `O=c1cc(NCCC(CNCc2ccoc2)NCc2cc(Br)cc(Br)c2)[nH]c2ccccc12` (centres undefined) it is 910 nM.
The figure for `CC(C)Cn1cc(C2CCN(CCN3CCC(CNC(=O)c4ccc(-c5ccc(C#N)cc5)cc4)CC3)CC2)c2ccccc21` is 786 nM.
Regarding `CCOC(=O)N1CCN(C(=O)Nc2ccc(Cl)cc2)CC1`, the XC50 was 1520 nM.
The figure for `CN(CCC1CCN(C(=O)/C=C/c2ccc(Cl)c(Cl)c2)CC1)C1CCC(c2c[nH]c3ccccc23)CC1` (centres undefined) is 774 nM; for `CC1(C)N=C(N)N=C(N)N1c1ccc(I)cc1` it is 44.4 nM.
The figure for `c1cc(CNCC2CCCO2)cc(-c2ccc(-c3nc4ccccc4[nH]3)s2)c1` (centres undefined) is 1170 nM; for `Cc1cccc2nc(-c3ccc(-c4cccc(C(=O)NCCN5CCCC5)c4)s3)[nH]c12` it is 1140 nM; for `Cc1cc(N2CCCCC2)nc2ccc(NC(=O)c3cc(=O)c4ccccc4o3)cc12` it is 716 nM.
Turning to `O=C1OC2(CCN(C(=O)c3ccc(-n4cnnn4)cc3)CC2)CN1Cc1ccc(Cl)c(Cl)c1`, the XC50 was 715 nM.
The compound `Cc1cccc(NC(=O)c2ccc(C(=O)NC3CCN(CC4CCCCC4)C3)cc2)c1` (centres undefined) registered an XC50 of 923 nM.
`CS(=O)(=O)N(c1ccc(F)cc1)c1cc(C(=O)N[C@@H](Cc2ccccc2)[C@H](O)CNCc2cccc(C(F)(F)F)c2)cc(N2CCCC2=O)c1` displayed an XC50 of 1350 nM.
The figure for `CCNc1cc(C(=O)N[C@@H](Cc2ccccc2)[C@H](O)CN[C@H](C)c2ccccc2)cc(N2CCCC2=O)c1` is 54.3 nM; for `COc1ccc(O)c(C(=O)NCCc2ccc(OC)c(-c3ccc(C(C)(C)C)cc3)c2)c1` it is 1030 nM; for `COc1cc2nc(N3CCC(CNC(=O)/C=C/c4ccccc4F)CC3)nc(N)c2cc1OC` it is 581 nM.
`N#Cc1cccc(C(=O)Nc2cccc(-c3ccc(C(=O)Nc4cccnc4)cc3)c2)c1` had an XC50 of 693 nM.
The figure for `COc1ccc(C(O)CNC(C)CCc2ccccc2)cc1C(F)(F)F` (centres undefined) is 70.4 nM; for `Oc1ccc(CCNc2nc(NCc3ccc4cc(Cl)ccc4c3)nc(N3CCNCC3)n2)cc1` it is 1020 nM; for `CC(C)COc1ccc(Cl)cc1Cc1ccc(-c2nc3cc(CCN(C)C)ccc3[nH]2)o1` it is 982 nM.
`CNC(=O)c1ccccc1Nc1nc(Nc2ccc(N3CCOCC3)cc2)ncc1Cl` showed an XC50 of 727 nM.
As to `COCCn1c(SC(C)C(=O)Nc2cc(C(F)(F)F)ccc2Cl)nc2ccccc2c1=O` (centres undefined), the XC50 worked out at 629 nM.
Next, `CCN(CC)CCCN(CCCN(CC)CC)c1cc(C)nc(Nc2ccc3cc(Br)ccc3c2)n1`: 567 nM.
For `CN(C)CCOc1ccc(N2CCN(CCCCNC(=O)c3ccc(NC(=O)c4ccc(Cl)cc4)cc3)CC2)cc1`, the XC50 turned out to be 826 nM.
The compound `CC(C)C[C@H](NC(=O)c1cc(-c2ccc(C(C)(C)C)cc2)no1)C(=O)O.CC(C)C[C@H](NC(=O)c1conc1-c1ccc(C(C)(C)C)cc1)C(=O)O` showed an XC50 of 186 nM.
`COc1ccc(C(=O)Nc2ccc(-c3ccc([N+](=O)[O-])cc3)cc2)cc1CCCN(C)C`: the XC50 amounted to 803 nM.
In turn, `COc1cc2nc(NCc3ccc(S(N)(=O)=O)cc3)nc(Nc3ccc(Oc4ccccc4)cc3)c2cc1OC` displayed an XC50 of 445 nM.
For `O=[N+]([O-])c1cccc(CNCC2CCN(Cc3ccc(C(F)(F)F)cc3)CC2)c1`, the XC50 came out at 245 nM.
`COc1ccc2ncc(F)c(NC(=O)C3CCC(NCc4cc5cc(F)cc(F)c5[nH]4)CC3)c2n1` (centres undefined) displayed an XC50 of 1090 nM.
In turn, `COc1cc(C(=O)NCc2nn(CCN3CCC(N4CCCC4)CC3)cc2-c2ccc(Cl)c(Cl)c2)cc(OC)c1OC` gave an XC50 of 774 nM.
Compound `CCOC(=O)NCC(=O)Nc1cccc(-c2cccc(-c3nc4cccc(C)c4[nH]3)c2)c1` gave an XC50 of 740 nM.
The compound `O=C(Nc1cccc(-c2nn3ccccc3c2-c2ccnc(Nc3ccc(C(=O)N4CCOCC4)cc3)n2)c1)c1c(F)cccc1F` registered an XC50 of 383 nM.
Next, `Cc1nc(N)nc(N)c1OCCCCCCOc1ccccc1`: 235 nM; `CCN(CC1CCN(CC2(O)CCOCC2)CC1)c1cc(C)nc(Nc2ccc(Cl)cc2)n1`: 406 nM.
As to `OC1CCN(c2cc(-c3ccccn3)nc(-c3ccccn3)n2)CC1`, the XC50 came to 1050 nM.
Next, `O=C(Nc1ccccc1)N(Cc1ccc(-c2cccc(CNC3CCCC3)c2)cc1)C1CCN(Cc2ccccc2)CC1`: 427 nM; `CC(C)(C)c1ccc(CN2CCC(CNC(=O)c3cc(-c4cccc(Cl)c4)cs3)C2)cc1` (centres undefined): 1160 nM; `N=C(N)Nc1nc(CCCCCCCCc2csc(NC(=N)N)n2)cs1`: 598 nM.
`CCc1c(CCNCCCC(C)CCNCCc2ccc(OC)c(OC)c2CC)ccc(OC)c1OC` (centres undefined) displayed an XC50 of 1110 nM.
Compound `CCOc1c(OC)ccc2c1CCN(CCN1CCC(NC(=O)c3ccc(-c4cccc(C(F)(F)F)c4C(F)(F)F)cc3)CC1)C2` displayed an XC50 of 728 nM.
`CN(CC1CCC(NC(=O)/C=C/c2ccc(Cl)c(Cl)c2)CC1)C1CCC(c2c[nH]c3ccccc23)CC1` (centres undefined): the XC50 stood at 837 nM.
Next, `Cc1ccccc1Cc1cccc(/N=C(\N)Nc2ccc(Cl)cc2)n1`: 676 nM; `N=C(N)c1ccc(NC(=O)Cc2nc3cc(C(=N)N)ccc3[nH]2)cc1`: 1380 nM; `Fc1cccc(Nc2nc(NCc3ccc(Cl)c(Cl)c3)nc(Nc3cccc(F)c3)n2)c1`: 748 nM.
Turning to `CCc1cccc(OCCCON2C(=N)N=C(N)NC2(C)C)c1`, the XC50 was found to be 3.2 nM.
Compound `NC(CC1CC(=O)N1CC(=O)O)C(=O)O` (centres undefined) came in with an XC50 of 156 nM.
Next, `CCn1cnc2c(N3CCCC3=O)cc(C(=O)N[C@@H](Cc3ccccc3)[C@H](O)CNC3CCCCC3)cc21`: 574 nM; `CCOC(=O)c1cncc(/C=C/c2cc(C)cnc2N)c1`: 424 nM; `CN1CCN(S(=O)(=O)c2ccc3nccc(Nc4ccc(Oc5ccccc5)cc4)c3c2)CC1`: 818 nM.
Next, `O=S(=O)(c1c(Cl)cc(Cl)cc1Cl)N1CCCCC(c2ccc(C(F)(F)F)cc2)=N1`: 95 nM; `Cc1cccc(CC(=N)NCCCCCCNC(=N)Cc2cccc(C)c2)c1`: 167 nM; `CCn1c(-c2ccccc2)cc2nnc3ccccc3c21`: 769 nM.
The compound `Cc1cc(O)c(-c2ccc(S(=O)(=O)c3ccc(Cl)cc3)cc2)c(C)n1` displayed an XC50 of 877 nM.
The compound `Cc1cc(NC(=O)Nc2ccc(C#N)cc2)c2ccccc2n1` displayed an XC50 of 567 nM.
The compound `CCCCCCNC(=O)C1Cc2c([nH]c3cc(Cl)ccc23)C2(CCN(Cc3ccccc3)CC2)N1` (centres undefined) returned an XC50 of 903 nM.
On to `COc1cc(NC(=O)/C=C/c2ccccc2Cl)cc(OCCN2CCC(O)(c3ccccc3)CC2)c1`, for which the XC50 is 174 nM.
On to `O=C(Nc1ccc(Cl)c(Cl)c1)C1CCC(=O)N1[C@@H](Cc1ccccc1)C(=O)NCCc1ccc(Cl)cc1` (some centres undefined), for which the XC50 amounted to 1100 nM.
On to `COc1ccc(Nc2ncc3c(-c4cccc(NC(=O)Cc5cccnc5)c4)c[nH]c3n2)cc1OC`, for which the XC50 worked out at 718 nM.
For the compound `CC[C@H]1CN2CC[C@@H]1C[C@H]2[C@H](O)c1cc(N2CCSCC2)nc2ccc(OC)cc12`, the XC50 came out at 199 nM.
Next, `O=C(NCCCCN1CCC(c2ccc3c(c2OCC2COCO2)CCCC3)CC1)c1ccc(-c2ccc(C(F)(F)F)cc2)cc1` (centres undefined): 868 nM.
